Laboratory results taken from patent US20180214428A1, “3-(1H-INDOL-2-YL)-1H-PYRAZOLO[3,4-B]PYRIDINES AND THERAPEUTIC USES THEREOF” (Samumed, LLC, priority 2015, published 2018).

Legend:
[1] = tested on: Wnt activity (Sp5-Luc reporter gene, SW480 colon carcinoma cells); assay: Screening assay for Wnt activity: Sp5-Luc reporter gene assay in SW480 cells; assay type: cell-based, human; conditions: Homo sapiens; for EC50: overnight incubation
Procedure, shortened: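 SW480 cells stably transduced with a luciferase reporter driven by an Sp5 promoter of eight TCF/LEF sites were plated at 4,000 cells/well in 1% FBS medium. They were exposed overnight at 37° C to a 10-point 1:3 dilution series from 10 μM (0.1% DMSO). Luminescence was normalized to DMSO for four-parameter EC50, or percent inhibition at 10 μM.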

[2] = tested on: primary human mesenchymal stem cells (hMSCs); assay: Induction of chondrogenesis in primary human mesenchymal stem cells; assay type: cell-based; conditions: Homo sapiens, Mesenchymal stem cells, 144 h, 6 days; for Emax: chondrogenic nodules, TGF-β3 (10 ng/mL) positive control, read-out: Max. Activity as % TGF-β3 activity; for EC50: concentration required to induce 50% levels of chondrogenesis vs TGF-β3, read-out: Conc (nM) of 50% TGF-β3 activity
Method: Representative compounds were screened using primary human mesenchymal stem cells (hMSCs) to determine their ability to induce chondrogenesis (process by which cartilage is developed).
Primary human mesenchymal stem cells (hMSCs) were purchased from Lonza (Walkersville, Md.) and expanded in Mesenchymal Stem Cell Growth Media (Lonza). Cells between passage 3 and 6 were used for the experiments.
Each compound was dissolved in DMSO as a 10 mM stock and used to prepare compound source plates. Serial dilution (1:3, 6-point dose-response curves from 2700 nM to 10 nM) and compound transfer was performed using the ECHO 550 (Labcyte, Sunnyvale, Calif.) into 96-well clear bottom assay plates (Greiner Bio-One) with appropriate DMSO backfill for a final DMSO concentration of 0.03%. hMSCs were plated at 20,000 cells/well in 250 μL/well Incomplete Chondrogenic Induction Medium (Lonza; DMEM, dexamethasone, ascorbate, insulin-transferrin-selenium [ITS supplement], gentamycin-amphotericin [GA-1000], sodium pyruvate, proline and L-glutamine). TGF-β3 (10 ng/mL) was used as a positive control for differentiation while negative control wells were treated with 75 nL DMSO for normalization and calculating EC50 values. Cells were incubated at 37° C. and 5% CO2 for 6 days. To image chondrogenic nodules, the cells were fixed using 4% formaldehyde (Electron Microscopy Sciences), and stained with 2 μg/mL Rhodamine B (Sigma-Aldrich) and 20 μM Nile Red (Sigma-Aldrich) [Johnson K., et. al, A Stem Cell-Based Approach to Cartilage Repair, Science, (2012). 336(6082), 717-721]. The nodules imaged (4 images per well at 4× magnification) by excitation at 531 nm and emission at 625 nm and quantified using the CellInsight CX5 (Thermo Scientific). Number of nodules in each well was normalized to the average of 3 DMSO treated wells on the same plate using Excel (Microsoft Inc.). The normalized averages (fold change over DMSO) of 3 replicate wells for each compound concentration were calculated. Due to solubility limitations of some of the compounds, curve fitting was incomplete leading to inaccurate EC50 determinations.
Using TGF-β3 as a positive control, the concentration of representative compounds required to induce 50% levels of chondrogenesis is reported. In addition, the maximum activity of each compound and the respective dose that each compound reached maximum chondrogenesis activity is reported.

Structure (SMILES) | EC50 [1] | Emax [2] | EC50 [2] | inhibition at 10 µM ([1]; at 10 μM, given for EC50 of >10 μM, read-out: percent inhibition at 10 μM)
Nc1cncc(-c2cnc3[nH]nc(-c4cc5c(-c6ccccn6)cccc5[nH]4)c3c2)c1 [Compound 121, 5-(3-(4-(Pyridin-2-yl)-1H-indol-2-yl)-1H-pyrazolo[3,4-b]pyridin-5-yl) pyridin-3-amine] | 174 nM | 117% | 900 nM | 
c1cncc(-c2cccc3[nH]c(-c4n[nH]c5ncc(-c6cncc(CN7CCCCC7)c6)cc45)cc23)c1 [Compound 84, 5-(5-(Piperidin-1-ylmethyl)pyridin-3-yl)-3-(4-(pyridin-3-yl)-1H-indol-2-yl)-1H-pyrazolo[3,4-b]pyridine] | > 10000 nM | 82% | 900 nM | 48.5%
CN(C)CCNc1cc(F)cc(-c2cccc3[nH]c(-c4n[nH]c5ncc(-c6cncc(CN7CCCCC7)c6)cc45)cc23)c1 [Compound 437, N^1-(3-Fluoro-5-(2-(5-(5-(piperidin-1-ylmethyl)pyridin-3-yl)-1H-pyrazolo[3,4-b]pyridin-3-yl)-1H-indol-4-yl)phenyl)-N^2,N^2-dimethylethane-1,2-diamine] | 2780 nM | 175% | 900 nM | 
CC(C)CC(=O)Nc1cncc(-c2cnc3[nH]nc(-c4cc5c(-c6cc(F)cc(NCCN(C)C)c6)cccc5[nH]4)c3c2)c1 [Compound 424, N-(5-(3-(4-(3-((2-(Dimethylamino)ethyl)amino)-5-fluorophenyl)-1H-indol-2-yl)-1H-pyrazolo[3,4-b]pyridin-5-yl)pyridin-3-yl)-3-methylbutanamide] | 304 nM | 63% |  | 
Cc1ncc(-c2cnc3[nH]nc(-c4cc5ccccc5[nH]4)c3c2)n1C [Compound 655, 5-(1,2-Dimethyl-1H-imidazol-5-yl)-3-(1H-indol-2-yl)-1H-pyrazolo[3,4-b]pyridine] | 3340 nM | 47% |  | 
CS(=O)(=O)NCc1cc(F)cc(-c2cccc3[nH]c(-c4n[nH]c5ncc(-c6cncc(N)c6)cc45)cc23)c1 [Compound 453, N-(3-(2-(5-(5-Aminopyridin-3-yl)-1H-pyrazolo[3,4-b]pyridin-3-yl)-1H-indol-4-yl)-5-fluorobenzyl)methanesulfonamide] | 157 nM | 189% | 900 nM | 
CC(C)Nc1cncc(-c2cnc3[nH]nc(-c4cc5c(-c6cc(F)cc(NCCN(C)C)c6)cccc5[nH]4)c3c2)c1 [Compound 434, N^1-(3-Fluoro-5-(2-(5-(5-(isopropylamino)pyridin-3-yl)-1H-pyrazolo[3,4-b]pyridin-3-yl)-1H-indol-4-yl)phenyl)-N^2,N^2-dimethylethane-1,2-diamine] | 312 nM | 56% |  | 
CN(C)CCNc1cc(F)cc(-c2cccc3[nH]c(-c4n[nH]c5ncc(-c6cncc(N)c6)cc45)cc23)c1 [Compound 425, N^1-(3-(2-(5-(5-Aminopyridin-3-yl)-1H-pyrazolo[3,4-b]pyridin-3-yl)-1H-indol-4-yl)-5-fluorophenyl)-N^2,N^2-dimethylethane-1,2-diamine] | 293 nM | 101% | 900 nM | 
c1ccc(-c2cccc3[nH]c(-c4n[nH]c5ncc(-c6cncc(CN7CCCC7)c6)cc45)cc23)nc1 [Compound 131, 3-(4-(Pyridin-2-yl)-1H-indol-2-yl)-5-(5-(pyrrolidin-1-ylmethyl)pyridin-3-yl)-1H-pyrazolo[3,4-b]pyridine] | 4530 nM | 161% |  | 
c1ccc(-c2cccc3[nH]c(-c4n[nH]c5ncc(-c6cncnc6)cc45)cc23)nc1 [Compound 143, 3-(4-(Pyridin-2-yl)-1H-indol-2-yl)-5-(pyrimidin-5-yl)-1H-pyrazolo[3,4-b]pyridine] | 2020 nM | 25% |  | 
CCNCc1cncc(-c2cnc3[nH]nc(-c4cc5c(-c6cc(F)cc(NCCN(C)C)c6)cccc5[nH]4)c3c2)c1 [Compound 428, N^1-(3-(2-(5-(5-((Ethylamino)methyl)pyridin-3-yl)-1H-pyrazolo[3,4-b]pyridin-3-yl)-1H-indol-4-yl)-5-fluorophenyl)-N^2,N^2-dimethylethane-1,2-diamine] | 947 nM | 74% |  | 
CC(C)(C)CC(=O)Nc1cncc(-c2cnc3[nH]nc(-c4cc5c(-c6ccccn6)cccc5[nH]4)c3c2)c1 [Compound 133, 3,3-Dimethyl-N-(5-(3-(4-(pyridin-2-yl)-1H-indol-2-yl)-1H-pyrazolo[3,4-b]pyridin-5-yl)pyridin-3-yl)butanamide] | 1010 nM | 345% | 900 nM | 
CC(C)Nc1cncc(-c2cnc3[nH]nc(-c4cc5c(-c6cccnc6)cccc5[nH]4)c3c2)c1 [Compound 81, N-Isopropyl-5-(3-(4-(pyridin-3-yl)-1H-indol-2-yl)-1H-pyrazolo[3,4-b]pyridin-5-yl)pyridin-3-amine] | 450 nM | 264% | 10 nM | 
CCCC(=O)Nc1cncc(-c2cnc3[nH]nc(-c4cc5ccccc5[nH]4)c3c2)c1 [Compound 243, N-(5-(3-(1H-Indol-2-yl)-1H-pyrazolo[3,4-b]pyridin-5-yl)pyridin-3-yl) butyramide] | 521 nM | 28% |  | 
CCNCc1cncc(-c2cnc3[nH]nc(-c4cc5c(-c6ccccc6F)cccc5[nH]4)c3c2)c1 [Compound 52, N-((5-(3-(4-(2-Fluorophenyl)-1H-indol-2-yl)-1H-pyrazolo[3,4-b]pyridin-5-yl)pyridin-3-yl)methyl)ethanamine] | 5840 nM | 64% |  | 
c1cncc(-c2cnc3[nH]nc(-c4cc5c(-c6cccnc6)cccc5[nH]4)c3c2)c1 [Compound 74, 5-(Pyridin-3-yl)-3-(4-(pyridin-3-yl)-1H-indol-2-yl)-1H-pyrazolo[3,4-b]pyridine] | 570 nM | 29% |  | 
O=C(Nc1cncc(-c2cnc3[nH]nc(-c4cc5c(-c6cccnc6)cccc5[nH]4)c3c2)c1)C1CCC1 [Compound 89, N-(5-(3-(4-(Pyridin-3-yl)-1H-indol-2-yl)-1H-pyrazolo[3,4-b]pyridin-5-yl)pyridin-3-yl)cyclobutanecarboxamide] | 230 nM | 41% |  | 
O=C(CC1CCNCC1)Nc1cncc(-c2cnc3[nH]nc(-c4cc5c(-c6ccccn6)cccc5[nH]4)c3c2)c1 [Compound 595, 2-(Piperidin-4-yl)-N-(5-(3-(4-(pyridin-2-yl)-1H-indol-2-yl)-1H-pyrazolo[3,4-b]pyridin-5-yl)pyridin-3-yl)acetamide] | 3710 nM | 79% |  | 
CCNCc1cncc(-c2cnc3[nH]nc(-c4cc5c(N6CCCCC6)cccc5[nH]4)c3c2)c1 [Compound 150, N-((5-(3-(4-(Piperidin-1-yl)-1H-indol-2-yl)-1H-pyrazolo[3,4-b]pyridin-5-yl)pyridin-3-yl)methyl)ethanamine] | 4640 nM | 91% | 30 nM | 
CCNCc1cncc(-c2cnc3[nH]nc(-c4cc5c(-c6ccccn6)cccc5[nH]4)c3c2)c1 [Compound 124, N-((5-(3-(4-(Pyridin-2-yl)-1H-indol-2-yl)-1H-pyrazolo[3,4-b]pyridin-5-yl)pyridin-3-yl)methyl)ethanamine] | 7010 nM | 32% |  | 
CCCCC(=O)Nc1cncc(-c2cnc3[nH]nc(-c4cc5c(-c6ccccn6)cccc5[nH]4)c3c2)c1 [Compound 136, N-(5-(3-(4-(Pyridin-2-yl)-1H-indol-2-yl)-1H-pyrazolo[3,4-b]pyridin-5-yl)pyridin-3-yl)pentanamide] | 385 nM | 41% |  | 
CN(C)c1cncc(-c2cnc3[nH]nc(-c4cc5c(N6CCCCC6)cccc5[nH]4)c3c2)c1 [Compound 151, N,N-Dimethyl-5-(3-(4-(piperidin-1-yl)-1H-indol-2-yl)-1H-pyrazolo[3,4-b]pyridin-5-yl)pyridin-3-amine] | 982 nM | 22% |  | 
CN(C)c1cncc(-c2cnc3[nH]nc(-c4cc5c(-c6cccc(F)c6)cccc5[nH]4)c3c2)c1 [Compound 5, 5-(3-(4-(3-Fluorophenyl)-1H-indol-2-yl)-1H-pyrazolo[3,4-b]pyridin-5-yl)-N,N-dimethylpyridin-3-amine] | 672 nM | 49% |  | 
